Counter-ions that a name gives are not always drawn.
Tests used:
[1] = molecular target: T1, recombinant H1 receptor (human) (Homo sapiens, UniProt P35367); assay: H1 competition binding assay ([3H]-Pyrilamine, SPA)
T1 construct: expressed in transfected cells; host or cells: HEK-293
Experimental: [^3H]-Pyrilamine binding experiments are carried out in SPA (scintillation proximity assay) 96-well format. Membranes used in this assay are prepared from HEK-293 cells stably expressing recombinant H1 receptor (human). The incubation is initiated by the addition of a mixture of WGA PVT SPA beads (1 mg/well, Perkin Elmer (MA, USA) RPNQ0001) and 3 μg membranes to assay buffer (67 mM Tris; pH 7.6) containing 3.5 nM [^3H]-Pyrilamine and varying concentrations of the test compound (10 point concentration response curves). Non-specific binding is determined in the presence of 10 μM Triprolidine. Samples are incubated for 4 hr. at room temperature (22° C.) and then read in a Microbeta® Trilux.
(§1) Binding data analysis Curves are evaluated using a 4-parameter logistic nonlinear equation to obtain the concentration of competitor causing 50% inhibition of radioligand binding (IC50). Equilibrium dissociation constants (Ki) are calculated according to the equation Ki=IC50/(1+L/Kd), where L equals the concentration of radioligand used in the experiment and Kd equals the equilibrium dissociation constant of the radioligand for the receptor, determined from standard saturation analysis or homologous competition experiments. Reported values for Ki, where n values are indicated, are shown as geometric mean±the standard error of the mean (SEM), with the number of replicate determinations indicated by n. […]

[2] = molecular target: Adrenergic alpha2A (Homo sapiens, UniProt P08913); assay: Adrenergic alpha2A binding
Excerpt: (§2) Further, the compounds of the invention may be tested in binding assays and functional activity assays by well known methods for other physiologically important receptors such as, but not limited to, the hERG channel, other serotonin receptors (specifically 5-HT1B and 5-HT1D receptors, lack of agonist activity at 5-HT2B receptors, 5-HT2C, 5-HT5, 5-HT6, and 5-HT7 receptors), dopaminergic receptors (specifically D1, D2, and D3), GABAA receptors, adrenergic receptors and monoamine transporters.

[3] = molecular target: Dopamine D1 (Homo sapiens, UniProt P21728); assay: Dopamine D1 binding
Excerpt: as §2

[4] = molecular target: Serotonin Transporter (Homo sapiens, UniProt P31645); assay: Serotonin transporter binding
Excerpt: as §2

[5] = molecular target: T2, recombinant 5-HT2C receptor (human) (Homo sapiens, UniProt P28335); assay: 5-HT2C competition binding assay ([125I]-(±)DOI, SPA)
T2 construct: expressed in transfected cells; host or cells: AV-12
Experimental: [^125I]-(±)DOI binding experiments are carried out in SPA 96-well format. Membranes used in this assay are prepared from AV-12 cells stably expressing recombinant 5-HT2C receptor (human). The incubation is initiated by the addition of a mixture of WGA PVT SPA beads (0.5 mg/well, Perkin Elmer (MA, USA), RPNQ0001) and 2.5 μg membranes to assay buffer (50 mM Tris-HCl, 10 mM MgCl2, 0.5 mM EDTA, 10 μM pargyline, 0.1% ascorbic acid, pH7.4) containing 0.2 nM [[^125I]-(±)DOI and varying concentrations of the test compound (10 point concentration response curves). Non-specific binding is determined in the presence of 20 μM 1-(1-naphthyl) piperazine. Samples are incubated for 4 hr. at room temperature (22° C.) and then read in a Microbeta® Trilux.
as §1, with “experiments.” for “experiments. Reported values for Ki, where n values are indicated, are shown as geometric mean±the standard error of the mean (SEM), with the number of replicate determinations indicated by n.”

[6] = molecular target: Adrenergic alpha2C (Homo sapiens, UniProt P18825); assay: Adrenergic alpha2C binding
Excerpt: as §2

[7] = molecular target: Dopamine D3 (Homo sapiens, UniProt P35462); assay: Dopamine D3 binding
Excerpt: as §2

[8] = molecular target: 5-HT1D (Homo sapiens, UniProt P28221); assay: 5-HT1D binding
Excerpt: as §2

[9] = molecular target: Norepinephrine Transport (Homo sapiens, UniProt P23975); assay: Norepinephrine transporter binding
Excerpt: as §2

[10] = molecular target: T3, recombinant 5-HT2A receptor (human) (Homo sapiens, UniProt P28223); assay: 5-HT2A competition binding assay ([3H]-Ketanserin, SPA)
T3 construct: expressed in transfected cells; host or cells: AV-12
Experimental: [^3H]-Ketanserin binding experiments are carried out in SPA 96-well format. Membranes used in this assay are prepared from AV-12 cells stably expressing recombinant 5-HT2A receptor (human). The incubation is initiated by the addition of a mixture of WGA YSi SPA beads (1 mg/well, Perkin Elmer (MA, USA), RPNQ0011) and 2 μg membranes to assay buffer (67 mM Tris, 0.5 mM EDTA; pH 7.6) containing 3.1 nM [^3H]-Ketanserin and varying concentrations of the test compound (10 point concentration response curves). Non-specific binding is determined in the presence of 20 μM 1-(1-naphthyl) piperazine. Samples are incubated for 4 hr. at room temperature (22° C.) and then read in a Microbeta® Trilux.
as §1

[11] = molecular target: hERG Channel (Homo sapiens, UniProt Q12809); assay: hERG channel inhibition; conditions: inhibition at 10 μM
Excerpt: as §2

[12] = system: native GABAA receptors; assay: GABAA antagonism using native receptors in primary neuronal cultures (FLIPR calcium flux); format: cell-based; conditions: against 10 μM GABA, rat cortical embryonic neurons
Experimental: Activity of compounds on native GABAA receptors is evaluated by monitoring calcium fluxes using a 96 well format FLIPR® system (Fluorometric Imaging Plate Reader (FLIPR®, Molecular Devices). Briefly, cortical embryonic neurons are dissociated from E18 rat embryos and plated at optimum density into black-walled, transparent bottom poly-D-lysine coated 96-well FLIPR® plates. After loading the cells with a calcium sensitive dye (Fluo4-AM, Molecular Devices), the cells are bathed in a solution containing low chloride (chloride replaced by gluconate). Under these conditions activation of GABAA receptors causes an efflux of chloride ions (in the direction of the chemical gradient), which results in membrane depolarization and consequently activation of voltage gated calcium channels (VGCCs). Calcium influx through VGCCs is recorded and analysed offline using the FLIPR® system. For a pharmacological validation of the assay, concentration response curves (CRC) are recorded for the standard agonist (GABA) and standard antagonist (Gabazine). […]
The antagonist effects of compounds are quantified using 10-point dose response curves by comparing the peak fluorescent responses to the agonist GABA in the presence and absence of compound. […] Antagonist effects are calculated as a percent of the assay window. […]

[13] = molecular target: Adrenergic alpha1A (Homo sapiens, UniProt P35348); assay: Adrenergic alpha1A binding
Excerpt: as §2

Chain of hERG Channel (Q12809 whole entry): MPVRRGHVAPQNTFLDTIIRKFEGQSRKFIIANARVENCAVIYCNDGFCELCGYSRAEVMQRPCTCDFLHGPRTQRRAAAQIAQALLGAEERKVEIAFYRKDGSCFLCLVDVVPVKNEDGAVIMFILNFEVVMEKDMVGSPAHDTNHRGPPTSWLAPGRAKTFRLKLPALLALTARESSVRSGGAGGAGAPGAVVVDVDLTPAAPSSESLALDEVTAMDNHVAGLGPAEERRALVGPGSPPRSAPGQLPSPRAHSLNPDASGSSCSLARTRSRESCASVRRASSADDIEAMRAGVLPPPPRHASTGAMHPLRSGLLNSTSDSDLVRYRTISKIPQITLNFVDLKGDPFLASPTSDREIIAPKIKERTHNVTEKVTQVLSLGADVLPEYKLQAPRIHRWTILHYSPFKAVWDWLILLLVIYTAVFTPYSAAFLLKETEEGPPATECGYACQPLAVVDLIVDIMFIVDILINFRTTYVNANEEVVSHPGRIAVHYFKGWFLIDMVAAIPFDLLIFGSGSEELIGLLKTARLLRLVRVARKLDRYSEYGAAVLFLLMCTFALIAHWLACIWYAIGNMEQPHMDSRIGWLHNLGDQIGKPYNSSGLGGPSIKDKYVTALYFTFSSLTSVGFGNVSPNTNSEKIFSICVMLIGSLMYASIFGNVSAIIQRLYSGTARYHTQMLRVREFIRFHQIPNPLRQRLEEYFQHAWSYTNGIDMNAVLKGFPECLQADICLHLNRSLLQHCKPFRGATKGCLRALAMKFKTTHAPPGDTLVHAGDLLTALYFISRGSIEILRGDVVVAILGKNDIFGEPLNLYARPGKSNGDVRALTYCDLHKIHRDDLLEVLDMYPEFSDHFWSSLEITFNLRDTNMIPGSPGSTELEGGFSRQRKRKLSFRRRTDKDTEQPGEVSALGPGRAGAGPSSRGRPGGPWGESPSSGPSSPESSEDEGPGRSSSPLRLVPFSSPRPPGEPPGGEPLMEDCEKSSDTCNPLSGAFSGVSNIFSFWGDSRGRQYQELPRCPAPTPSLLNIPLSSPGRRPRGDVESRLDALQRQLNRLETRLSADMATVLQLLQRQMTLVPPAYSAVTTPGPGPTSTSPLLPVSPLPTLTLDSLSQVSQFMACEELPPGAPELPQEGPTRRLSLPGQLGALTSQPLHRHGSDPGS
T2 sequence (P28335 33-458): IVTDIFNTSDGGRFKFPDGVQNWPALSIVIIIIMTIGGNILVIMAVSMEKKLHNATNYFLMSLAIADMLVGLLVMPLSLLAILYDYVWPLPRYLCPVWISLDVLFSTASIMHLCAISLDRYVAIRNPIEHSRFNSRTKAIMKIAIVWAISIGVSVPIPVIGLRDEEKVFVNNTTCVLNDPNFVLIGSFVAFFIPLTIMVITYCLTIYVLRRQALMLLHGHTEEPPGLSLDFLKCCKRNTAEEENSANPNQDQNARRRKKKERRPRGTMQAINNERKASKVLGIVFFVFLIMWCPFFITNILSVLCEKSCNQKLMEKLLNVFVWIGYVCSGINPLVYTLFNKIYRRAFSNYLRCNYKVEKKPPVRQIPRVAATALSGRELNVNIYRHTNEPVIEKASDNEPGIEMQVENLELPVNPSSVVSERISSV
Chain of 5-HT1D (P28221 whole entry, species assumed): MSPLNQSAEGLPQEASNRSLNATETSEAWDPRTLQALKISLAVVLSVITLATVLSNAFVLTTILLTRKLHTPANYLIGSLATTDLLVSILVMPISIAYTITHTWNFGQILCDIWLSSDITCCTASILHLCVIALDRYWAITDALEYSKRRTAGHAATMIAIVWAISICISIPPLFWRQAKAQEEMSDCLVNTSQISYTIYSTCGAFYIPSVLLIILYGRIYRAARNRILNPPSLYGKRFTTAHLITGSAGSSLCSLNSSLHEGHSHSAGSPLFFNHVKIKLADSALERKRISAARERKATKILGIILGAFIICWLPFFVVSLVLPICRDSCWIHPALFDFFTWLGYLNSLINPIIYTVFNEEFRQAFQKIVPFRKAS
T3 sequence (P28223 whole entry): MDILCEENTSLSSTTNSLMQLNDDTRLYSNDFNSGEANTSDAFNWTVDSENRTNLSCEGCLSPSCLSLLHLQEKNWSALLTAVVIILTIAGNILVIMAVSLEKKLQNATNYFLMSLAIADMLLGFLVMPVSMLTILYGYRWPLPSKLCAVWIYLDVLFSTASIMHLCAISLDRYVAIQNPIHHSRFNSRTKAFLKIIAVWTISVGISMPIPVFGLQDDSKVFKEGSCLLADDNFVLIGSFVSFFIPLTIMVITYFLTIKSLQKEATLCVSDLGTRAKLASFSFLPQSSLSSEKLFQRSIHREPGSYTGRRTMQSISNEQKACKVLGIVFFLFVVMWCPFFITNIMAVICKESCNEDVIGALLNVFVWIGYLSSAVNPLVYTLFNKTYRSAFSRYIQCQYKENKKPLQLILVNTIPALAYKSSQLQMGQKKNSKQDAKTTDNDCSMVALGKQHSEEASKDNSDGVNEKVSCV
Chain of Norepinephrine Transport (P23975 whole entry): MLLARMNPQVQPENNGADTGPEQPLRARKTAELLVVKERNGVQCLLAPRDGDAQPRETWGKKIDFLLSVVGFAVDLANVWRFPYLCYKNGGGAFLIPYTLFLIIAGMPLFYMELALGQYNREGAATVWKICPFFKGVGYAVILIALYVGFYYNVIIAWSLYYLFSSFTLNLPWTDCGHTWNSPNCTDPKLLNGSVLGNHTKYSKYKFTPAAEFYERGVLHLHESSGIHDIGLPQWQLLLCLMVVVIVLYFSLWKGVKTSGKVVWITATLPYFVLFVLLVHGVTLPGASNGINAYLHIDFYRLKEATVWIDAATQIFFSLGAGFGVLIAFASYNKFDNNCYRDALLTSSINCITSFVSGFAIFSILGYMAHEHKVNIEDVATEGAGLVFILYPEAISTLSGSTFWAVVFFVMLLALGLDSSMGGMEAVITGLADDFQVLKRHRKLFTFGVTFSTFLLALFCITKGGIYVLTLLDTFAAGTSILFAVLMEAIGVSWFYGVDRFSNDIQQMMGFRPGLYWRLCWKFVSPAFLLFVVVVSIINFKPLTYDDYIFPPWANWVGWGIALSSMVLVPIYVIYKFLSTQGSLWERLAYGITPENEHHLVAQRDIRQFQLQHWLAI
Chain of Dopamine D3 (P35462 whole entry): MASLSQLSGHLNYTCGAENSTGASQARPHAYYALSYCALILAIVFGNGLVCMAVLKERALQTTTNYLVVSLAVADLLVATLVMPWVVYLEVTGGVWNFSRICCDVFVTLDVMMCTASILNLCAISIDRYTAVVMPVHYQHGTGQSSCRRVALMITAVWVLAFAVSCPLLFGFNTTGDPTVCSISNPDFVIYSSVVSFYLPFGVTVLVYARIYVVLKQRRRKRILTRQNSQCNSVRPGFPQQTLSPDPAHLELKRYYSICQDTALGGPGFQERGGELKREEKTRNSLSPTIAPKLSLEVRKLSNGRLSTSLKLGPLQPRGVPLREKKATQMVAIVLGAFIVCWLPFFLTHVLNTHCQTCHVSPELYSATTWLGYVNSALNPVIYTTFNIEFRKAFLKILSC
Chain of Adrenergic alpha2A (P08913 whole entry): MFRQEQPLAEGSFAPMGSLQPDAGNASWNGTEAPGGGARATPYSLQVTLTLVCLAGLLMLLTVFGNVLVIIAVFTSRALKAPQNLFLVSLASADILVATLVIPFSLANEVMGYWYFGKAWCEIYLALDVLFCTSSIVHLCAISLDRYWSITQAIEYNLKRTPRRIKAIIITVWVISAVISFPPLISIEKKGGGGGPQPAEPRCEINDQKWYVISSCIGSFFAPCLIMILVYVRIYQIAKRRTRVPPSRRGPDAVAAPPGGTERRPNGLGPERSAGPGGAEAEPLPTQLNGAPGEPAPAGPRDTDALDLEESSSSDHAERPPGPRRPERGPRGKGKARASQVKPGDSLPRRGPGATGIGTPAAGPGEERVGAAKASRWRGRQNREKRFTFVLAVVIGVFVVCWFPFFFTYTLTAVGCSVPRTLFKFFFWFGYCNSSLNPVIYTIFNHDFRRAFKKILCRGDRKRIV
Chain of Adrenergic alpha2C (P18825 whole entry): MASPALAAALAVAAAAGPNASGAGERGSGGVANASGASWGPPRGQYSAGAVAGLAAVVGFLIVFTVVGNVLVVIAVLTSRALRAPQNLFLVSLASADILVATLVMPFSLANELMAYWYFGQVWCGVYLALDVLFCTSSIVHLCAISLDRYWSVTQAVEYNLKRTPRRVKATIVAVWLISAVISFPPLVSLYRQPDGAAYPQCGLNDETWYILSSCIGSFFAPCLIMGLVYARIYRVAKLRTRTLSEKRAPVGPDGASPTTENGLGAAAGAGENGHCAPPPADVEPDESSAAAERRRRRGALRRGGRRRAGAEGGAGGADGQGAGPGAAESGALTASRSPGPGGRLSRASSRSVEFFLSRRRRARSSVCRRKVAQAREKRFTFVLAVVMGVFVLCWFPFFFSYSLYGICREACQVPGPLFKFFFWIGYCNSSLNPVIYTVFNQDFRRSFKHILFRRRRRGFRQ
T1 sequence (P35367 whole entry): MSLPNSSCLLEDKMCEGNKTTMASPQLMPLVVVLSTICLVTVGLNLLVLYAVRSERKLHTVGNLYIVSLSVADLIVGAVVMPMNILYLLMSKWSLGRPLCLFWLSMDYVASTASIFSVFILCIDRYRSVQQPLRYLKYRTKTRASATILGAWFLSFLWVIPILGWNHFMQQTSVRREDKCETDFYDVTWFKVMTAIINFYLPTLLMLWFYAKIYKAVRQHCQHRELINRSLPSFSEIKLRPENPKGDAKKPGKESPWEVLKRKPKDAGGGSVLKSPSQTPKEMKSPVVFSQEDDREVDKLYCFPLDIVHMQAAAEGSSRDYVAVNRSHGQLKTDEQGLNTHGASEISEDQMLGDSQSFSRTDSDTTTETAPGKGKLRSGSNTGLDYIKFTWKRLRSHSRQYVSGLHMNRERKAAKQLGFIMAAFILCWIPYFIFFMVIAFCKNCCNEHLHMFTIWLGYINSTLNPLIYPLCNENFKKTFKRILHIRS

Cc1ccc2c(c1)Oc1sc(C3CC3)cc1C(N1CCN(CC(C)(C)C(=O)O)CC1)=N2 [Example 2, 3-[4-(2-Cyclopropyl-8-methyl-thieno[2,3-b][1,5]benzoxazepin-4-yl)piperazin-1-yl]-2,2-dimethyl-propanoic acid dihydrochloride]
Ki [1]: 43.2 nM | Ki [2]: 5920 nM | Ki [3]: 996 nM | Ki [4]: > 478 nM | Ki [5]: 493 nM | Ki [6]: 1380 nM | Ki [7]: > 6280 nM | Ki [8]: > 3980 nM | Ki [9]: > 671 nM | Ki [10]: 10.2 nM | hERG Channel (μM) [11]: 53% inhibition | IC50 [12]: > 100000 nM | Ki [13]: 4620 nM
